Legend:
Format in all cases: in vivo
collagen = assay: Collagen amount, bleomycin-induced IPF mice; conditions: for Fibrosis formation in lung tissue (collagen): day 28, p<0.01; for The amount of collagen: day 28 after BLM
Description: The amount of the collagen in the lung lavage is measured to reflect the fibrosis formation. […] (2) After the lung lavage is obtained, the chest of mice is opened and the lung lobes are cut one by one. […] The 1.5 ml eppendorffs are taken to arrange the calibration curve as follows. […] The eppendorff is then centrifuged at 12,000 rpm for 10 mins. The supernatant in the eppendorff is poured out slowly, 1 ml basic compound is added for dissolving the precipitation. After being violently shaken for 5 mins, the reaction is incubated for 3 hrs to stabilize the color. […] The amount of collagen is estimated through the 540 nm absorption measured by the ELISA reader.

[1] = tested on: inflammatory cells in the lung lavage; assay: Inflammatory cells in lung lavage, bleomycin-induced IPF mice; set-up: WBC total (white blood cell total count) / NE (neutrophil) / LY (lymphocyte) / MO (monocyte) / EO (eosinophil) / BA (basophil): unit not given here; conditions: for Amount of WBC in lung lavage: lung inflammatory stage; for BA (basophil) / EO (eosinophil) / LY (lymphocyte) / MO (monocyte) / NE (neutrophil) / WBC total (white blood cell total count): lung lavage
Description: The amounts of the total cell, the neutrophill, the lymphocyte, the monocyte, the eosinophill and the basophill are analyzed by an automatic animal blood cell analyzer for evaluating the extent of the inflammation. […] The mice are euthanatized by administering the Urathane in a dose of 37.5 mg/10 g. The larynx is opened, the trachea is picked out, cut and held by a forcepts and a 0.58 mm PE tube is slowly inserted the trachea for infusing 0.5 ml PBS. The PBS is incubated for 15 seconds and then collected after gently massaging the lung tissue. 1 c.c. lung lavage is obtained after the above steps are repeated twice. The lung lavage is collected and transferred into a centrifuged tube for centrifuging at 1,200 rpm at 4° C. for 6 mins. The supernatant is collected and stored at −80° C. for zymography, and the pellet is suspended in PBS for calculating the WBC count. The pellet of the alveolar lavage is suspended in PBS and transferred into an eppendorff. The amount and kind of the inflammatory cell such as WBC total, the lymphocyte, the monocyte, the neutrophil, the eosinophil and the basophil are analyzed by an automatic animal blood cell analyzer.

[2] = Body weight change, bleomycin-induced IPF mice
Description: The six-week old mice are used in this experiment and divided into ten groups as follows. […] The six-week old male C57B1/6 mice are purchased from the National Laboratory Animal Center. […] After being […] pentobarbital in the dose of 0.52 mg/10 g, the mice is kept upright and positioned an otoscope into the larynx for looking into the trachea clearly. The bleomycin is loaded by a loading tip for intratracheal administration.

MMP-9 = assay: Gelatin zymography of lung lavage, bleomycin mice; conditions: for MMP-9 expression in lung lavage (zymography): day 7 or day 28, p<0.05; for Expression of MMP-9 in lung lavage: lung inflammatory stage
Description: (§1) The activities of MMP-2 (FIGS. 7A and 8A) and MMP-9 (FIGS. 7B and 8B) in the lung lavage of mice on day 7 (FIG. 7) and day 28 (FIG. 8) are analyzed by zymography. The expression levels are minor in the normal control group. […] The expressions of MMP-2 and MMP-9 on day 7 are higher than that on day 28. […] It is seen that KMUPs have the effect of mitigating the inflammation.
(§2) The MMPs in the lung lavaga are measured by zymography. It is known that all of the MMP-1, MMP-2, MMP-3, MMP-7 and MMP-9 can degrade the gelatin, especially the MMP-2 and MMP-9. The activity of collagenase can be analyzed by SDS-PAGE gel adding by gelatin. After the collected bronchoalveolar lavage fluid (BALF) is electrophoreted, the SDS is removed with 2.5% (v/v) Triton X-100 and the activity of collagenase is recovered to degrade the gelatin. After reacting for a period of time, the commassie blue is utilized for staining and destaining so that a transparent band in the area having the collagenase activity can be seen owing to the gelatin is degraded.
(§3) The BALF is collected and the concentration thereof is measured by Bio-Rad DC protein assay. The absorption of BALF at 595 nm wavelength is measured by an ELISA reader with a BSA standard, and the concentration of the sample is measured according to the standard curve of this absorption value.
(§4) The sample is mixed with non sample buffer. After reacting under temperature for 10 mins, the separating gel containing 0.1% gelatin is utilized for electrophoresis analysis under low temperature. While the electrophoresis is finished, the gel is immersed in 2.5% Triton X-100 buffer to react under temperature for half hour. The 2.5% Triton X-100 buffer is exchanged to react under temperature for additional half hour. The gel is immersed in the developing buffer at 37° C. for 24 hrs, stained with staining buffer for 1 hr and destained with the destaining buffer, and the transparent band can be seen.

MMP-2 = assay: Gelatin zymography of lung lavage, bleomycin mice; conditions: for MMP-2 expression in lung lavage (zymography): day 7 or day 28, p<0.05; for Expression of MMP2 in lung lavage: lung inflammatory stage
Description: as §1, §2, §3, §4

[3] = dose 2.5 mg/kg (Combination: 2.5 mg/kg each drug)
[4] = day 7, dose 2.5 mg/kg (Combination: 2.5 mg/kg each drug)
[5] = day 28, dose 2.5 mg/kg (Combination: 2.5 mg/kg each drug)
[6] = Day 7, dose 2.5 mg/kg (Combination: 2.5 mg/kg each drug)
[7] = Day 14, dose 2.5 mg/kg (Combination: 2.5 mg/kg each drug)
[8] = Day 28, dose 2.5 mg/kg (Combination: 2.5 mg/kg each drug)
[9] = Day −3, dose 2.5 mg/kg (Combination: 2.5 mg/kg each drug)

Cn1c(=O)c2c(ncn2CCN2CCN(c3ccccc3Cl)CC2)n(C)c1=O [KMUP-1, 7-[2-[4-(2-chlorobenzene)piperazinyl]ethyl]-1,3-dimethylxanthine]
Fibrosis formation in lung tissue (collagen) (collagen): reduce | The amount of collagen (collagen; dose 1 mg/kg): 165.16 ± 0.11 μg/lung | The amount of collagen (collagen; [3]): 132.25 ± 5.95 μg/lung | The amount of collagen (collagen; dose 5 mg/kg): 108.32 ± 6.05 μg/lung | Amount of WBC in lung lavage [1]: efficiently decrease | BA (basophil) ([1]; day 7, dose 1 mg/kg): 0.2 ± 0.01 | EO (eosinophil) ([1]; day 7, dose 1 mg/kg): 0.44 ± 0.02 | LY (lymphocyte) ([1]; day 7, dose 1 mg/kg): 1.83 ± 0.11 | MO (monocyte) ([1]; day 7, dose 1 mg/kg): 0.12 ± 0.02 | NE (neutrophil) ([1]; day 7, dose 1 mg/kg): 0.92 ± 0.13 | WBC total (white blood cell total count) ([1]; day 7, dose 1 mg/kg): 3.51 ± 0.01 | BA (basophil) [1, 4]: 0.11 ± 0.02 | EO (eosinophil) [1, 4]: 0.17 ± 0.11 | LY (lymphocyte) [1, 4]: 1.81 ± 0.09 | MO (monocyte) [1, 4]: 0.07 ± 0.01 | NE (neutrophil) [1, 4]: 0.91 ± 0.36 | WBC total (white blood cell total count) [1, 4]: 3.2 ± 0.49 | BA (basophil) ([1]; day 7, dose 5 mg/kg): 0.1 ± 0.02 | EO (eosinophil) ([1]; day 7, dose 5 mg/kg): 0.16 ± 0.01 | LY (lymphocyte) ([1]; day 7, dose 5 mg/kg): 1.76 ± 0.01 | MO (monocyte) ([1]; day 7, dose 5 mg/kg): 0.07 ± 0.01 | NE (neutrophil) ([1]; day 7, dose 5 mg/kg): 0.33 ± 0.14 | WBC total (white blood cell total count) ([1]; day 7, dose 5 mg/kg): 2.43 ± 0.01 | BA (basophil) ([1]; day 28, dose 1 mg/kg): 0.21 ± 0.06 | EO (eosinophil) ([1]; day 28, dose 1 mg/kg): 0.42 ± 0.17 | LY (lymphocyte) ([1]; day 28, dose 1 mg/kg): 1.89 ± 0.76 | MO (monocyte) ([1]; day 28, dose 1 mg/kg): 0.2 ± 0.25 | NE (neutrophil) ([1]; day 28, dose 1 mg/kg): 0.61 ± 0.11 | WBC total (white blood cell total count) ([1]; day 28, dose 1 mg/kg): 3.41 ± 0.54 | BA (basophil) [1, 5]: 0.11 ± 0.7 | EO (eosinophil) [1, 5]: 0.17 ± 0.12 | LY (lymphocyte) [1, 5]: 1.24 ± 0.43 | MO (monocyte) [1, 5]: 0.07 ± 0.02 | NE (neutrophil) [1, 5]: 0.36 ± 0.16 | WBC total (white blood cell total count) [1, 5]: 1.95 ± 0.92 | BA (basophil) ([1]; day 28, dose 5 mg/kg): 0.1 ± 0.02 | EO (eosinophil) ([1]; day 28, dose 5 mg/kg): 0.16 ± 0.01 | LY (lymphocyte) ([1]; day 28, dose 5 mg/kg): 1.1 ± 0.01 | MO (monocyte) ([1]; day 28, dose 5 mg/kg): 0.07 ± 0.01 | NE (neutrophil) ([1]; day 28, dose 5 mg/kg): 0.33 ± 0.14 | WBC total (white blood cell total count) ([1]; day 28, dose 5 mg/kg): 1.8 ± 0.01 | Body weight ([2]; Day 7, dose 1 mg/kg): 19.80 ± 3.13 g | Body weight [2, 6]: 17.84 ± 1.72 g | Body weight ([2]; Day 7, dose 5 mg/kg): 18.33 ± 1.3 g | Body weight ([2]; Day 14, dose 1 mg/kg): 20.48 ± 5.68 g | Body weight [2, 7]: 19.11 ± 3.4 g | Body weight ([2]; Day 14, dose 5 mg/kg): 19.83 ± 2.3 g | Body weight ([2]; Day 28, dose 1 mg/kg): 21.90 ± 5.27 g | Body weight [2, 8]: 20.43 ± 2.8 g | Body weight ([2]; Day 28, dose 5 mg/kg): 21.13 ± 2.5 g | Body weight ([2]; Day −3, dose 1 mg/kg): 24.12 ± 1.96 g | Body weight [2, 9]: 23.06 ± 1.36 g | Body weight ([2]; Day −3, dose 5 mg/kg): 23.13 ± 1.42 g | MMP-9 expression in lung lavage (zymography) (MMP-9): significantly decrease | Expression of MMP-9 in lung lavage (MMP-9): efficiently decrease | MMP-2 expression in lung lavage (zymography) (MMP-2): significantly decrease | Expression of MMP2 in lung lavage (MMP-2): efficiently decrease

CCC(C)(C)C(=O)O[C@H]1C[C@@H](C)C=C2C=C[C@H](C)[C@H](CC[C@@H](O)C[C@@H](O)CC(=O)O)[C@H]21.Cn1c(=O)c2c(ncn2CCN2CCN(c3ccccc3Cl)CC2)n(C)c1=O [KMUP-5]
Fibrosis formation in lung tissue (collagen) (collagen): reduce | The amount of collagen (collagen; [3]): 79.40 ± 0.02 μg/lung | Amount of WBC in lung lavage [1]: efficiently decrease | BA (basophil) [1, 4]: 0.02 ± 0.01 | EO (eosinophil) [1, 4]: 0.06 ± 0.04 | LY (lymphocyte) [1, 4]: 0.45 ± 0.17 | MO (monocyte) [1, 4]: 0.03 ± 0.02 | NE (neutrophil) [1, 4]: 0.18 ± 0.08 | WBC total (white blood cell total count) [1, 4]: 0.74 ± 0.21 | BA (basophil) [1, 5]: 0.01 ± 0.16 | EO (eosinophil) [1, 5]: 0.05 ± 0.3 | LY (lymphocyte) [1, 5]: 1.32 ± 1.59 | MO (monocyte) [1, 5]: 0.06 ± 0.11 | NE (neutrophil) [1, 5]: 0.14 ± 0.39 | WBC total (white blood cell total count) [1, 5]: 1.58 ± 2.24 | Body weight [2, 6]: 22.25 ± 2.36 g | Body weight [2, 7]: 23.15 ± 2.51 g | Body weight [2, 8]: 23.03 ± 2.74 g | Body weight [2, 9]: 23.87 ± 2.04 g | Marasmus (body weight loss) ([2]; bleomycin mice): less significant | MMP-9 expression in lung lavage (zymography) (MMP-9): significantly decrease | Expression of MMP-9 in lung lavage (MMP-9): efficiently decrease | MMP-2 expression in lung lavage (zymography) (MMP-2): significantly decrease | Expression of MMP2 in lung lavage (MMP-2): efficiently decrease

— patent US20100317671A1, “XANTHINE-BASED CYCLIC GMP-ENHANCING RHO-KINASE INHIBITOR INHIBITS PHYSIOLOGICAL ACTIVITIES OF LUNG EPITHELIAL CELL LINE” (KAOHSIUNG MEDICAL UNIVERSITY, priority 2008, published 2010)
